From article PMC7382742, “Identification of Potential Inhibitors of Calcium/Calmodulin-Dependent Protein Kinase IV from Bioactive Phytoconstituents” (Oxidative Medicine and Cellular Longevity, 2020)

How the values were obtained:
[1] = biological target: T1, Calcium/calmodulin-dependent protein kinase IV (CaMKIV) (Homo sapiens, UniProt Q16566); assay: malachite green (BIOMOL Green) ATPase inhibition assay with recombinant refolded CaMKIV; also intrinsic fluorescence quenching (binding constant […] ^-1); assay type: biochemical
T1 construct: gene CAMK4; CaMKIV kinase domain
T1 sequence (Q16566 46-300 limits assumed): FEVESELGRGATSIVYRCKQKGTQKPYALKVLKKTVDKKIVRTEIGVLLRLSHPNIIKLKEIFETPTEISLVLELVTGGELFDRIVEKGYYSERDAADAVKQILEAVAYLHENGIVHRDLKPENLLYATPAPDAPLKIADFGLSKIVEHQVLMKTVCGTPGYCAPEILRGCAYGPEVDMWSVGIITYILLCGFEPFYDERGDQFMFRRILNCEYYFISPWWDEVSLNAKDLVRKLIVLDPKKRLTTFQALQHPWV

[2] = biological target: T1, Calcium/calmodulin-dependent protein kinase IV (CaMKIV); assay: malachite green (BIOMOL Green) ATPase inhibition assay with recombinant refolded CaMKIV; also intrinsic fluorescence quenching (Ksv […] ^-1); assay type: biochemical

| Compound | IC50 [1] [µM] | IC50 [2] [µM] |
| --- | --- | --- |
| O=c1oc2c(O)c(O)cc3c(=O)oc4c(O)c(O)cc1c4c23 [EA, ellagic acid] | 39.7 ± 8.6 |  |
| O=c1c(O)c(-c2ccc(O)c(O)c2)oc2cc(O)cc(O)c12 [quercetin] |  | 61.3 ± 5.4 |
